The text below walks through data of ChEMBL document CHEMBL1201862, “PubChem BioAssay data set” (2004).

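How tested: cells in 96-well plates exposed to compound for 48 hours at five concentrations. At the GI50, growth is halved.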 The source made the active and inactive calls. No stated cut-off is given here; in the data, active = GI50 up to about 1.1 µM and inactive = higher.

Among the test systems are IGROV-1; BT-549; CAKI-1; SF-295; SK-MEL-2; UO-31; EKVX; HCT-116; SK-OV-3; MDA-N; SNB-75; HCC 2998; SNB-19; HOP-62; OVCAR-8; SK-MEL-28; KM12; HL-60; SK-MEL-5; HOP-92.
What all share (assay): NCI tumour cell line growth inhibition, 48 h

As to `O=c1ccc2c(Cl)sc(Cl)c2[nH]1`, the GI50 in the test on IGROV-1, in the test with BT-549, in the test with CAKI-1, in the test with SF-295, in the test on SK-MEL-2 and in the test on UO-31 was > 100 µM (inactive) each time. The GI50 with EKVX is 98.4 µM (inactive); in the test with HCT-116, > 100 µM (inactive); in the test with SK-OV-3 it was > 100 µM (inactive); in the test with MDA-N it was > 100 µM (inactive); in the test on SNB-75, > 100 µM (inactive); in the test with HCC 2998, > 100 µM (inactive). The GI50 with SNB-19, in the test with HOP-62, in the test on OVCAR-8, with SK-MEL-28 and with KM12 was > 100 µM (inactive) throughout.
As to `O=C1c2ccsc2-c2cccc3cccc1c23.O=C1c2sccc2-c2cccc3cccc1c23`, the GI50 is 6.59 µM (inactive) in the test on IGROV-1; 1.94 µM (inactive) with BT-549; 11.2 µM (inactive) in the test on HL-60; 2.26 µM (inactive) in the test on CAKI-1; 8.79 µM (inactive) in the test with SF-295; 14.8 µM (inactive) in the test on SK-MEL-2. Moreover, the GI50 in the test on UO-31 is 4.67 µM (inactive); in the test with EKVX it was 0.0132 µM (active); in the test on HCT-116, 2.78 µM (inactive); in the test on SK-OV-3 it was 18.5 µM (inactive); with SNB-75 it was 3.27 µM (inactive); in the test with SNB-19 it was 2.93 µM (inactive). Also, the GI50 is 2.67 µM (inactive) in the test on HOP-62, 4.94 µM (inactive) with OVCAR-8, 21.1 µM (inactive) with SK-MEL-28 and 3.52 µM (inactive) with KM12.
Turning to `COC1(OC)CC(CO)(CNc2nc(N)nc(Cl)c2C=O)C1`, the GI50 with IGROV-1 was 20.7 µM (inactive); in the test on BT-549, 48.5 µM (inactive); in the test with HL-60, 13.6 µM (inactive); with SK-MEL-5, > 100 µM (inactive); in the test with CAKI-1, 42.6 µM (inactive); in the test with SF-295, > 100 µM (inactive). The GI50 in the test with UO-31 was 60.1 µM (inactive); in the test with EKVX, 22.8 µM (inactive); in the test with HCT-116 it was 39.3 µM (inactive); in the test with SNB-75, 90.4 µM (inactive); in the test on HCC 2998 it was 28.1 µM (inactive); with SNB-19, 43.8 µM (inactive). The GI50 in the test with HOP-62 was 42.5 µM (inactive); in the test with OVCAR-8, 43 µM (inactive); in the test on HOP-92 it was 14.6 µM (inactive); with SK-MEL-28, 50 µM (inactive); with KM12 it was 49 µM (inactive).
Turning to `C=C(CCC=C(C)C)C1CC=C(C)CC1` (stereo not drawn), the GI50 with IGROV-1 is 13.6 µM (inactive); in the test on BT-549, 95.7 µM (inactive); in the test with SK-MEL-5, 16.6 µM (inactive); in the test with CAKI-1, 19.7 µM (inactive); with SF-295, 19.9 µM (inactive); in the test with SK-MEL-2 it was 17.7 µM (inactive). Further, the GI50 in the test on UO-31 was 16.4 µM (inactive); with EKVX, 29.2 µM (inactive); with HCT-116 it was 19.4 µM (inactive); in the test with SK-OV-3, > 100 µM (inactive); in the test on MDA-N, 18.5 µM (inactive); with SNB-19 it was > 100 µM (inactive). Moreover, the GI50 in the test on HOP-62 was 16.3 µM (inactive); with OVCAR-8, 36 µM (inactive); in the test on KM12 it was 19 µM (inactive).
On to `CC1Cc2c(Br)nc(N)nc2NC1=O` (stereo not drawn), for which the GI50 in the test on IGROV-1, in the test with BT-549, in the test on SK-MEL-5, with CAKI-1, in the test with SF-295 and with SK-MEL-2 was > 100 µM (inactive) each time. In addition, the GI50 in the test on UO-31, with EKVX, in the test on HCT-116, with SK-OV-3, with MDA-N and with SNB-75 was > 100 µM (inactive) each time. For the same compound, the GI50 in the test on HCC 2998, in the test on SNB-19, with HOP-62, in the test with OVCAR-8, in the test with SK-MEL-28 and with KM12 was > 100 µM (inactive) throughout.
